Source: BindingDB's records for doi:10.1111/cbdd.12579 (University of Karachi, 2015)

What was measured:
[1] = target: Carboxylic ester hydrolase (Equus caballus, UniProt Q9N1N9); assay: AChE and BChE Inhibition Assay; conditions: pH 8; 25 °C
Protocol: (§1) A […] well plate was used for screening purpose. Each pyridopyrazine derivative was first dissolved in dimethyl sulfoxide to prepare the stock solutions. The synthetic compounds were then screened against electric eel acetylcholinesterase (eeAChE) and equine butyrylcholinesterase (BChE) at different concentrations (1 µM or 10 µM) of dimethyl sulfoxide as negative control in primarily screening. […] The reaction mixture which comprised of buffer solution (20 µL), synthetic compound (10 µL) and enzyme (0.5 and 3.4 U/mg, eeAChE or equine BChE) was primarily incubated for ten minutes at room temperature (25 C). Subsequently to the mixture, once the preincubation over, the acetylthiocholine iodide or butyrylthiocholine chloride (10 μL of 10 mM) was added and incubated it further for

Acetylcholinesterase = Acetylcholinesterase (Electrophorus electricus, UniProt O42275); assay: AChE and BChE Inhibition Assay; conditions: pH 8; 25 °C
Protocol: as §1

Chain of Carboxylic ester hydrolase (Q9N1N9 whole entry): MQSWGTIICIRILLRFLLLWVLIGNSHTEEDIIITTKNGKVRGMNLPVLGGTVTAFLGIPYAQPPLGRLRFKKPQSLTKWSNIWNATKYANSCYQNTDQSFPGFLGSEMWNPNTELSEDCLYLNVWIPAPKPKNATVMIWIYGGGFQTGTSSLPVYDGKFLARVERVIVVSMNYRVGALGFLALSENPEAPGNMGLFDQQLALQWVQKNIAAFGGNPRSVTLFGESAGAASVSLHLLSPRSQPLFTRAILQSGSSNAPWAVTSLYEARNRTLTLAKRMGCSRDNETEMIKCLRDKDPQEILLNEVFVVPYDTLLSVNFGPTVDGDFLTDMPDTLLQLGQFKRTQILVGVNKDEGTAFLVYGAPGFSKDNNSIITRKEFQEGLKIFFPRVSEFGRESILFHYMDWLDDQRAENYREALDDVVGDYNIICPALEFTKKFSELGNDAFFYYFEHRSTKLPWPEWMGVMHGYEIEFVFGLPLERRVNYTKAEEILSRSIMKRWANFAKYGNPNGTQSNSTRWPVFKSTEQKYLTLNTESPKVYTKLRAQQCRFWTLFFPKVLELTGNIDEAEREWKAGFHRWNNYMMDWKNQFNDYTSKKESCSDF
Chain of Acetylcholinesterase (O42275 whole entry): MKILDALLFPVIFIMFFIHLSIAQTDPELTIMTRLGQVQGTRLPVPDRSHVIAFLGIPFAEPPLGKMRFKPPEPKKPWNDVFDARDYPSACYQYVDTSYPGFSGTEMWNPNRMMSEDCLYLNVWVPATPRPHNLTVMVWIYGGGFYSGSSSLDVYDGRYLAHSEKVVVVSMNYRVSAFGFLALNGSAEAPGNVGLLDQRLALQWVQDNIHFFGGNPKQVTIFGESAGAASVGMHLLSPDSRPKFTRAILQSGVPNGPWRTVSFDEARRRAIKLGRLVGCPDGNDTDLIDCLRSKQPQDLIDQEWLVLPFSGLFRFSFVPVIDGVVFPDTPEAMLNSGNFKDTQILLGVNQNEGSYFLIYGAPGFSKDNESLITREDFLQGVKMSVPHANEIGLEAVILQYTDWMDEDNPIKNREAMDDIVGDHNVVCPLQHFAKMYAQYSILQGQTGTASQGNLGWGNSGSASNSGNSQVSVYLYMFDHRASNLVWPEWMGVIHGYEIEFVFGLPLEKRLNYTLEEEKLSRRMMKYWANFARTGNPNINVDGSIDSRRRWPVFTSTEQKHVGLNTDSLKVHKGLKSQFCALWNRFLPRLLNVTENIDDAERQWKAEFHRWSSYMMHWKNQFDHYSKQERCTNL

| Structure (SMILES) | IC50 [1] [µM] | IC50 (Acetylcholinesterase) [µM] |
| --- | --- | --- |
| Fc1cccc(-c2cnc3cccnc3n2)c1 [3-(3′-Fluorophenyl)pyrido[2,3-b]pyrazine (6f)] | 79.8 | 0.899 |
| Cc1cccc(-c2cnc3cccnc3n2)c1 [3-(3′-Methylphenyl)pyrido[2,3-b]pyrazine (6c)] | 0.583 | 5.88 |
| c1cnc2nc3c(nc2c1)CCCC3 [6,7,8,9-tetrahydropyrido[2,3-b]quinoxaline (6q)] | 10.9 | 5.78 |
| c1cnc2nc(-c3ccc(N4CCCCC4)cc3)cnc2c1 [3-(4′-(Piperidin-1-yl)phenyl)pyrido[2,3-b]pyrazine (6p)] | 3.91 | 4.75 |
| Clc1ccc(-c2cnc3cccnc3n2)cc1 [3-(4′-Chlorophenyl)pyrido[2,3-b]pyrazine (6g)] | 2.63 | 2.59 |
| Cc1ccccc1-c1cnc2cccnc2n1 [3-(2′-Methylphenyl)pyrido[2,3-b]pyrazine (6d)] | 21.2 | 5.39 |
| O=[N+]([O-])c1ccc(-c2cnc3cccnc3n2)cc1 [3-(4′-Nitrophenyl)pyrido[2,3-b]pyrazine (6m)] | 20.8 | 1.97 |
| O=[N+]([O-])c1ccccc1-c1cnc2cccnc2n1 [3-(2′-Nitrophenyl)pyrido[2,3-b]pyrazine (6o)] | 22.3 | 3 |
| Cc1ccc(-c2cnc3cccnc3n2)cc1 [3-(4′-Methylphenyl)pyrido[2,3-b]pyrazine (6b)] | 6.44 | 3.06 |
| O=[N+]([O-])c1cccc(-c2cnc3cccnc3n2)c1 [3-(3′-Nitrophenyl)pyrido[2,3-b]pyrazine (6n)] | 1.89 | 0.466 |
| Ic1ccc(-c2cnc3cccnc3n2)cc1 [3-(4′-Iodophenyl)pyrido[2,3-b]pyrazine (6l)] | 31.2 | 4.05 |
| Brc1cccc(-c2cnc3cccnc3n2)c1 [3-(3′-Bromophenyl)pyrido[2,3-b]pyrazine (6j)] | 11.5 | 3.12 |
| Fc1ccc(-c2cnc3cccnc3n2)cc1 [3-(4′-Fluorophenyl)pyrido[2,3-b]pyrazine (6e)] | 11.2 | 2.45 |
| Clc1cccc(-c2cnc3cccnc3n2)c1 [3-(3′-Chlorophenyl)pyrido[2,3-b]pyrazine (6h)] | 12.1 | 1.26 |
| Clc1ccccc1-c1cnc2cccnc2n1 [3-(2′-Chlorophenyl)pyrido[2,3-b]pyrazine (6i)] | 9.67 | 2.52 |
| c1ccc(-c2cnc3cccnc3n2)cc1 [3-Phenylpyrido[2,3-b]pyrazine (6a)] | 35.4 | 9.65 |
| Brc1ccccc1-c1cnc2cccnc2n1 [3-(2′-Bromophenyl)pyrido[2,3-b]pyrazine (6k)] | 7.45 | 4.03 |
| CN(C)C(=O)Oc1cccc([N+](C)(C)C)c1 [m-Trimethylammoniumphenyldimethylcarbamate] | 49.6 | – |
